According to patent US8785460B2, “Tricyclic compounds and use thereof” (Takeda Pharmaceutical Company Limited, priority 2008, dated 2014):

Key:
[1] = biological target: T1, human CRF1 receptor (Homo sapiens, UniProt P34998); experiment: Measurement of CRF Binding Inhibitory Rate (receptor binding experiment with 125I-CRF); details: human CRF1 receptor expressing CHO cellular membrane fraction, 50 pM 125I-CRF, room temperature 1.5 hr, 0.05 nM to 10 μM of compound; read-out: IC50 values (CRF binding inhibition)
T1 construct: expressed in transfected cells; host or cells: CHO cells (membrane fraction)
T1 sequence (P34998 24-415): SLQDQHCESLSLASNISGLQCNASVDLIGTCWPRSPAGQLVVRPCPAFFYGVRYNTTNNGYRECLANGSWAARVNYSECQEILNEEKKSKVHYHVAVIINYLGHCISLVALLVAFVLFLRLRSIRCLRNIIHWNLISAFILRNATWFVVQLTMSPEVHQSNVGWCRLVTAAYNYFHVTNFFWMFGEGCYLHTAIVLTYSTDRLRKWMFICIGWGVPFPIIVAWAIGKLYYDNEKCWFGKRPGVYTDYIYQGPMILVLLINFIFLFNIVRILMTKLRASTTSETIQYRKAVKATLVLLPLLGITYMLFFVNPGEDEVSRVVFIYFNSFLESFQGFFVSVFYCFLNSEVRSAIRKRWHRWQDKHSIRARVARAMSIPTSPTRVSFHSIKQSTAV

| SMILES | melting point [°C] | IC50 [1] [µM] |
| --- | --- | --- |
| COC(C)(C)c1ccc(Cl)c2nc3n(c12)CCCN3c1ccc(Cl)cc1Cl [Example 109, 9-Chloro-1-(2,4-dichlorophenyl)-6-(1-methoxy-1-methylethyl)-1,2,3,4-tetrahydropyrimido[1,2-a]benzimidazole] | 203 to 204 | < 1 |
| OC(c1ccc(Cl)c2nc3n(c12)CCCN3c1ccc(Cl)cc1C(F)(F)F)C1CC1 (stereo not drawn) [Example 132, {9-Chloro-1-[4-chloro-2-(trifluoromethyl)phenyl]-1,2,3,4-tetrahydropyrimido[1,2-a]benzimidazol-6-yl}(cyclopropyl)methanol] | 224 to 225 | < 1 |
| CCC(CC)c1ccc(Cl)c2nc3n(c12)CCN3c1ccc(Cl)cc1Br [Example 5, 1-(2-Bromo-4-chlorophenyl)-8-chloro-5-(1-ethylpropyl)-2,3-dihydro-1H-imidazo[1,2-a]benzimidazole] | 169 to 171 | < 1 |
| COC(c1ccc(Cl)c2nc3n(c12)CCCN3c1ccc(Cl)cc1C(F)(F)F)C1CC1 (stereo not drawn) [Example 134, 9-Chloro-1-[4-chloro-2-(trifluoromethyl)phenyl]-6-[cyclopropyl(methoxy)methyl]-1,2,3,4-tetrahydropyrimido[1,2-a]benzimidazole] | 208 to 209 | < 1 |
| CCOc1nc(C)c(N2CCCn3c2nc2c(Cl)ccc(C(OC(F)F)C(F)(F)F)c23)c(C)n1 (stereo not drawn) [Example 210, 9-Chloro-6-[1-(difluoromethoxy)-2,2,2-trifluoroethyl]-1-(2-ethoxy-4,6-dimethylpyrimidin-5-yl)-1,2,3,4-tetrahydropyrimido[1,2-a]benzimidazole] | 218 to 220 | < 1 |
| CCC(OCC(F)F)c1ccc(Cl)c2nc3n(c12)CCCN3c1ccc(OC)nc1C (stereo not drawn) [Example 273, 9-Chloro-6-[1-(2,2-difluoroethoxy)propyl]-1-(6-methoxy-2-methylpyridin-3-yl)-1,2,3,4-tetrahydropyrimido[1,2-a]benzimidazole] | 130 to 132 | < 1 |
| CCC(CC)c1ccc(Cl)c2nc3n(c12)CCCCN3c1cnc(C(N)=O)cc1C [Example 61, 5-[10-Chloro-7-(1-ethylpropyl)-2,3,4,5-tetrahydro-1H-[1,3]diazepino[1,2-a]benzimidazol-1-yl]-4-methylpyridine-2-carboxamide] | 267 to 269 | < 1 |
| O=C(OC(c1ccc(Cl)c2nc3n(c12)CCCN3c1ccc(Cl)cc1Cl)C1CC1)C1CC1 (stereo not drawn) [Example 478, 1-[9-Chloro-1-(2,4-dichlorophenyl)-1,2,3,4-tetrahydropyrimido[1,2-a]benzimidazol-6-yl](cyclopropyl)methyl cyclopropanecarboxylate] | 168 to 170 | < 1 |
| CCC(CC)c1ccc(Cl)c2nc3n(c12)CCCCN3c1c[n+]([O-])c(N(C)C)cc1C [Example 26, 5-[10-Chloro-7-(1-ethylpropyl)-2,3,4,5-tetrahydro-1H-[1,3]diazepino[1,2-a]benzimidazol-1-yl]-N,N,4-trimethylpyridin-2-amine 1-oxide] | 142 to 143 | < 1 |
| CC(C)(CO)c1ccc(Cl)c2nc3n(c12)CCCN3c1ccc(Cl)cc1Cl [Example 148, 2-[9-Chloro-1-(2,4-dichlorophenyl)-1,2,3,4-tetrahydropyrimido[1,2-a]benzimidazol-6-yl]-2-methylpropan-1-ol] | 176 to 177 | < 1 |
| CCC(CC(N)=O)c1cccc2nc3n(c12)CCCN3c1ccc(Cl)cc1Cl (stereo not drawn) [Example 205, 3-[1-(2,4-Dichlorophenyl)-1,2,3,4-tetrahydropyrimido[1,2-a]benzimidazol-6-yl]pentanamide] | 132 to 133 | < 1 |
| CCC(CC)c1ccc(Cl)c2nc3n(c12)CCCCN3c1ncc([N+](=O)[O-])cc1C [Example 64, 10-Chloro-7-(1-ethylpropyl)-1-(3-methyl-5-nitropyridin-2-yl)-2,3,4,5-tetrahydro-1H-[1,3]diazepino[1,2-a]benzimidazole] | 204 to 205 | < 1 |
| CC/C(=N/OC)c1ccc(Cl)c2nc3n(c12)CCCN3c1ccc(Cl)cc1Cl [Example 122, (1Z)-1-[9-Chloro-1-(2,4-dichlorophenyl)-1,2,3,4-tetrahydropyrimido[1,2-a]benzimidazol-6-yl]propan-1-one O-methyloxime] | 144 to 145 | < 1 |
| Cc1nc(OC(F)F)nc(C)c1N1CCCn2c1nc1c(Cl)ccc(C(OC(F)F)C(F)(F)F)c12 (stereo not drawn) [Example 216, 9-Chloro-1-[2-(difluoromethoxy)-4,6-dimethylpyrimidin-5-yl]-6-[1-(difluoromethoxy)-2,2,2-trifluoroethyl]-1,2,3,4-tetrahydropyrimido[1,2-a]benzimidazole] | 165 to 166 | < 1 |
| CCC(NC(=O)C(F)F)c1ccc(Cl)c2nc3n(c12)CCCN3c1ccc(Cl)cc1Cl (stereo not drawn) [Example 463, N-{1-[9-Chloro-1-(2,4-dichlorophenyl)-1,2,3,4-tetrahydropyrimido[1,2-a]benzimidazol-6-yl]propyl}-2,2-difluoroacetamide] | 248 to 250 | < 1 |
| CCOC(CC)c1ccc(Cl)c2nc3n(c12)CCCN3c1ccc(Cl)cc1Cl (stereo not drawn) [Example 116, 9-Chloro-1-(2,4-dichlorophenyl)-6-(1-ethoxypropyl)-1,2,3,4-tetrahydropyrimido[1,2-a]benzimidazole] | 108 to 110 | < 1 |
| CCOC(CC)c1ccc(Cl)c2nc3n(c12)CCCN3c1ccc(OC)nc1C (stereo not drawn) [Example 269, 9-Chloro-6-(1-ethoxypropyl)-1-(6-methoxy-2-methylpyridin-3-yl)-1,2,3,4-tetrahydropyrimido[1,2-a]benzimidazole] | 174 to 176 | < 1 |
| CCCC(OC)c1ccc(Cl)c2nc3n(c12)CCCN3c1ccc(Cl)cc1Cl (stereo not drawn) [Example 118, 9-Chloro-1-(2,4-dichlorophenyl)-6-(1-methoxybutyl)-1,2,3,4-tetrahydropyrimido[1,2-a]benzimidazole] | 139 to 140 | < 1 |
| CCC(CC)c1ccc(Cl)c2nc3n(c12)CCCCN3c1cccc2c1OC(F)(F)O2 [Example 54, 10-Chloro-1-(2,2-difluoro-1,3-benzodioxol-4-yl)-7-(1-ethylpropyl)-2,3,4,5-tetrahydro-1H-[1,3]diazepino[1,2-a]benzimidazole] | 156 to 158 | < 1 |
| Cc1cc(Cl)cc(Cl)c1N1CCn2c1nc1cccc(C(O)(C3CC3)C3CC3)c12 [Example 428, Dicyclopropyl[1-(2,4-dichloro-6-methylphenyl)-2,3-dihydro-1H-imidazo[1,2-a]benzimidazol-5-yl]methanol] | 243 to 246 | < 1 |
| CCC(CC)c1ccc(Cl)c2nc3n(c12)CCCCN3c1ncc(C(C)=O)cc1C [Example 342, 1-{6-[10-Chloro-7-(1-ethylpropyl)-2,3,4,5-tetrahydro-1H-[1,3]diazepino[1,2-a]benzimidazol-1-yl]-5-methylpyridin-3-yl}ethanone] | 142 | < 1 |
| CCOC(c1ccc(Cl)c2nc3n(c12)CCCN3c1ccc(Cl)cc1Cl)C(F)(F)F (stereo not drawn) [Example 310, 9-Chloro-1-(2,4-dichlorophenyl)-6-(1-ethoxy-2,2,2-trifluoroethyl)-1,2,3,4-tetrahydropyrimido[1,2-a]benzimidazole] | 129 to 131 | < 1 |
| COC(c1cccc2nc3n(c12)CCCN3c1ccc(Cl)cc1Cl)C(F)(F)F (stereo not drawn) [Example 202, 1-(2,4-Dichlorophenyl)-6-(2,2,2-trifluoro-1-methoxyethyl)-1,2,3,4-tetrahydropyrimido[1,2-a]benzimidazole] | 164 to 165 | < 1 |
| CS(=O)(=O)NC(c1ccc(Cl)c2nc3n(c12)CCCN3c1c(Cl)cc(Cl)cc1Cl)C(F)(F)F (stereo not drawn) [Example 416, N-{1-[9-Chloro-1-(2,4,6-trichlorophenyl)-1,2,3,4-tetrahydropyrimido[1,2-a]benzimidazol-6-yl]-2,2,2-trifluoroethyl}methanesulfonamide] | 290 to 291 | < 1 |
| CCC(NC(=O)OC)c1ccc(Cl)c2nc3n(c12)CCCN3c1ccc(Cl)cc1Cl (stereo not drawn) [Example 446, Methyl {1-[9-chloro-1-(2,4-dichlorophenyl)-1,2,3,4-tetrahydropyrimido[1,2-a]benzimidazol-6-yl]propyl}carbamate] | 201 to 203 | < 1 |
| COc1nc(C)nc(OC)c1N1CCCn2c1nc1c(Cl)ccc(C(O)(C3CC3)C3CC3)c12 [Example 174, [9-Chloro-1-(4,6-dimethoxy-2-methylpyrimidin-5-yl)-1,2,3,4-tetrahydropyrimido[1,2-a]benzimidazol-6-yl](dicyclopropyl)methanol] | 204 to 205 | < 1 |
| CCC(CC)(OC)c1ccc(Cl)c2nc3n(c12)CCCN3c1ccc(Cl)cc1C(F)(F)F [Example 130, 9-Chloro-1-[4-chloro-2-(trifluoromethyl)phenyl]-6-(1-ethyl-1-methoxypropyl)-1,2,3,4-tetrahydropyrimido[1,2-a]benzimidazole] | 172 to 173 | < 1 |
